Results: patent publication US20220324835A1 (Nurix Therapeutics, Inc., priority 2018, published 2022)
Where two headings read alike, the source gives them in different places.

Legend:
Cbl-b [1] = molecular target: T1, Cbl-b (Homo sapiens, UniProt Q13191); experiment: Cbl-b activity assay (Cbl-b inhibition assay), TR-FRET of Cbl-b interaction with UbcH5B-Ub; format: biochemical
Procedure, shortened: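 Compound-treated Cbl-b was incubated 1.5 h with Src kinase (60 nM final; 30 nM for asterisked values, which also used 50 mM instead of 100 mM NaCl), 1 mM ATP and 5 mM MgCl2. Binding to fluorescent Ub-loaded UbcH5B (C85K mutant) was then read by TR-FRET after 1 h more.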

T-cell [2] = experiment: IL-2 secretion from T-cells stimulated with anti-CD3 antibody alone (Biological Example 2); format: cell-based, human; settings: T-cell, fold change over baseline, primary human total T-cells, read-out: IL-2 secretion Anti-CD3 stimulation; for fold induction at 1 µM: 1 μM Cbl-b inhibitor; for fold induction at 8 µM: 8 μM Cbl-b inhibitor
T-cell [3] = experiment: CD25 cell surface staining on T-cells co-stimulated with anti-CD3 and anti-CD28 antibody (Biological Example 2); format: cell-based, human; settings: Homo sapiens, T-cell, primary human total T-cells
Procedure, shortened: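 Values are fold-change over baseline: readings (IL-2 release, CD25 staining) from inhibitor-treated T-cells divided against untreated cells […]. No detailed procedure stated.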

Cbl-b [4] = molecular target: T1, Cbl-b; experiment: Cbl-b inhibition assay (Cbl-b activity assay, FRET, Biological Example 1; 100 mM NaCl, 60 nM Src kinase); format: biochemical; settings: upper bound stated in text lists; read-out: IC50 values in the Cbl-b inhibition assay of Biological Example 1
Procedure, shortened: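 N-terminally biotinylated Avi-tagged Cbl-b was mixed with Src kinase, UbcH5B covalently conjugated to Bodipy-fluorescein ubiquitin, and streptavidin-terbium. Src phosphorylation lets Cbl-b bind UbcH5B-Ub, giving terbium-fluorescein FRET; inhibition is read as loss of FRET signal.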

T-cell [5] = experiment: CD25 cell surface staining on T-cells stimulated with anti-CD3 antibody alone (Biological Example 2); format: cell-based, human; settings: T-cell, fold change over baseline, primary human total T-cells, read-out: CD25 staining Anti-CD3 stimulation; for fold induction at 1 µM: 1 μM Cbl-b inhibitor; for fold induction at 8 µM: 8 μM Cbl-b inhibitor
[6] = assay buffer with 100 mM NaCl, 60 nM Src kinase, read-out: Cbl-b activity IC50
[7] = fold change over baseline, 0.3 μM Cbl-b inhibitor, read-out: CD25 staining Anti-CD3/Anti-CD28 stimulation
[8] = fold change over baseline, 1 μM Cbl-b inhibitor, read-out: CD25 staining Anti-CD3/Anti-CD28 stimulation
[9] = fold change over baseline, 4 μM Cbl-b inhibitor, read-out: CD25 staining Anti-CD3/Anti-CD28 stimulation
[10] = * assay buffer containing 50 mM NaCl instead of 100 mM NaCl and 30 nM Src kinase instead of 60 nM, read-out: Cbl-b activity IC50 (μM)*
[11] = 0.3 μM compound, baseline = anti-CD3/anti-CD28 stimulated cells without inhibitor, read-out: CD25 staining, Anti-CD3/Anti-CD28 stimulation, fold change over baseline
[12] = 1 μM compound, baseline = anti-CD3/anti-CD28 stimulated cells without inhibitor, read-out: CD25 staining, Anti-CD3/Anti-CD28 stimulation, fold change over baseline
[13] = 4 μM compound, baseline = anti-CD3/anti-CD28 stimulated cells without inhibitor, read-out: CD25 staining, Anti-CD3/Anti-CD28 stimulation, fold change over baseline

T1 sequence (Q13191 36-427): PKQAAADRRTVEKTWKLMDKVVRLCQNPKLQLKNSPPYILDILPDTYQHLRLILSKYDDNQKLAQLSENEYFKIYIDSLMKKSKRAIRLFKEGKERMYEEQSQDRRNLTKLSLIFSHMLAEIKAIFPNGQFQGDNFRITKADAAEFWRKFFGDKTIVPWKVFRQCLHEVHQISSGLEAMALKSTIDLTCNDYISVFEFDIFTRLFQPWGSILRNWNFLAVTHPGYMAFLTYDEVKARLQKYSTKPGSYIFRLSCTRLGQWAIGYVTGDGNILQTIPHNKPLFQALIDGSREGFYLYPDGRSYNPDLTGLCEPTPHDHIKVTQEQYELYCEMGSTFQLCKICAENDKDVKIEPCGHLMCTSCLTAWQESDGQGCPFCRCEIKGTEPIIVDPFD

**Q.** Which results are given for `Cn1cnnc1C(F)(F)C(C)(F)c1cccc(N2Cc3c(cccc3C(F)(F)F)C2=O)c1` (racemic) [Compound 296, 2-(3-(1,1,2-trifluoro-1-(4-methyl-4H-1,2,4-triazol-3-yl)propan-2-yl)phenyl)-4-(trifluoromethyl)isoindolin-1-one]?
**A.** IC50 (Cbl-b [1]; [6]): 0.301 to 1 µM; fold induction at 1 µM (T-cell [2]): > 0.201; fold induction at 8 µM (T-cell [2]): > 0.201; fold induction at 0.3 µM (T-cell [3]; [7]): 1.01 to 1.3; fold induction at 1 µM (T-cell [3]; [8]): 1.01 to 1.3; fold induction at 4 µM (T-cell [3]; [9]): 1.01 to 1.3; IC50 (Cbl-b [4]): ≤ 1000 nM; fold induction at 1 µM (T-cell [5]): 0.601 to 0.8; fold induction at 8 µM (T-cell [5]): 0.601 to 0.8

**Q.** What does the source list for `Cn1cnnc1CC(C)(F)c1cccc(N2Cc3c(cccc3C(F)(F)F)C2=O)c1` (racemic) [Compound 298, 2-(3-(2-fluoro-1-(4-methyl-4H-1,2,4-triazol-3-yl)propan-2-yl)phenyl)-4-(trifluoromethyl)isoindolin-1-one]?
**A.** IC50 (Cbl-b [1]; [6]): 0.1 to 0.3 µM; fold induction at 1 µM (T-cell [2]): 0.051 to 0.1; fold induction at 8 µM (T-cell [2]): 0.101 to 0.15; fold induction at 0.3 µM (T-cell [3]; [7]): < 1; fold induction at 1 µM (T-cell [3]; [8]): 1.01 to 1.3; fold induction at 4 µM (T-cell [3]; [9]): 1.01 to 1.3; IC50 (Cbl-b [4]): ≤ 500 nM; fold induction at 1 µM (T-cell [5]): 0.601 to 0.8; fold induction at 8 µM (T-cell [5]): 0.601 to 0.8

**Q.** `C[C@H](Cc1nncn1C)c1cc(N[C@@H]2CCOC2)nc(N2Cc3c(cccc3C(F)(F)F)C2=O)c1` (stereo in doubt) [Compound 362, 2-(4-((R)-1-(4-methyl-4H-1,2,4-triazol-3-yl)propan-2-yl)-6-((S)-THF-3-ylamino)pyridin-2-yl)-4-(trifluoromethyl)isoindolin-1-one] was tested. Which IC50 (Cbl-b [1]; [6]) did it give?
**A.** 0.1 to 0.3 µM

**Q.** And the fold induction at 1 µM (T-cell [2])?
**A.** 0.051 to 0.1

**Q.** What about the fold induction at 8 µM (T-cell [2]) of the same compound?
**A.** 0.101 to 0.15

**Q.** What about the fold induction at 0.3 µM (T-cell [3]; [7]) of the same compound?
**A.** < 1

**Q.** And the fold induction at 1 µM (T-cell [3]; [8])?
**A.** 1.01 to 1.3

**Q.** What about the fold induction at 4 µM (T-cell [3]; [9]) of the same compound?
**A.** 1.01 to 1.3

**Q.** And the IC50 (Cbl-b [4])?
**A.** ≤ 300 nM

**Q.** And the fold induction at 1 µM (T-cell [5])?
**A.** 0.601 to 0.8

**Q.** And the fold induction at 8 µM (T-cell [5])?
**A.** 0.801 to 1

**Q.** For `Cc1cc(C(=O)Nc2cccc([C@H](C)Sc3nncn3C)c2)nc2ccccc12` [Compound 30, (S)-4-Methyl-N-(3-(1-((4-methyl-4H-1,2,4-triazol-3-yl)thio)ethyl)phenyl)quinoline-2-carboxamide], which IC50 (Cbl-b [1]; [10]) is on record?
**A.** 0.301 to 1 µM

**Q.** What about the IC50 (Cbl-b [1]; [6]) of the same compound?
**A.** 0.301 to 1 µM

**Q.** What about the fold induction at 1 µM (T-cell [2]) of the same compound?
**A.** 0.051 to 0.1

**Q.** And the fold induction at 8 µM (T-cell [2])?
**A.** 0.101 to 0.15

**Q.** What about the fold induction at 0.3 µM (T-cell [3]; [7]) of the same compound?
**A.** 1.01 to 1.3

**Q.** What about the fold induction at 1 µM (T-cell [3]; [8]) of the same compound?
**A.** 1.01 to 1.3

**Q.** What about the fold induction at 4 µM (T-cell [3]; [9]) of the same compound?
**A.** 1.01 to 1.3

**Q.** What about the IC50 (Cbl-b [4]) of the same compound?
**A.** ≤ 500 nM

**Q.** What about the fold induction at 1 µM (T-cell [5]) of the same compound?
**A.** 0.601 to 0.8

**Q.** What about the fold induction at 8 µM (T-cell [5]) of the same compound?
**A.** 0.801 to 1

**Q.** `C[C@H](Sc1nncn1C)c1cccc(NC(=O)c2cc(C(F)(F)F)ccn2)c1` [Compound 32, (S)-N-(3-(1-((4-Methyl-4H-1,2,4-triazol-3-yl)thio)ethyl)phenyl)-4-(trifluoromethyl)picolinamide] was tested. Which IC50 (Cbl-b [1]; [10]) did it give?
**A.** 1 to 3 µM

**Q.** And the IC50 (Cbl-b [1]; [6])?
**A.** 3 to 10 µM

**Q.** And the fold induction at 1 µM (T-cell [2])?
**A.** < 0.05

**Q.** What about the fold induction at 8 µM (T-cell [2]) of the same compound?
**A.** 0.101 to 0.15

**Q.** What about the fold induction at 0.3 µM (T-cell [3]; [7]) of the same compound?
**A.** 1.01 to 1.3

**Q.** What about the fold induction at 1 µM (T-cell [3]; [8]) of the same compound?
**A.** 1.01 to 1.3

**Q.** And the fold induction at 4 µM (T-cell [3]; [9])?
**A.** 1.01 to 1.3

**Q.** What about the IC50 (Cbl-b [4]) of the same compound?
**A.** ≤ 10000 nM

**Q.** And the fold induction at 1 µM (T-cell [5])?
**A.** 0.601 to 0.8

**Q.** And the fold induction at 8 µM (T-cell [5])?
**A.** > 1

**Q.** For `Cn1cnnc1[C@@H]1C[C@@H]1c1cccc(N2Cc3c(ccnc3C(F)(F)F)C2=O)c1` [Compound 369, 2-{3-[(1S,2R)-2-(4-methyl-4H-1,2,4-triazol-3-yl)cyclopropyl]phenyl}-4-(trifluoromethyl)-1H,2H,3H-pyrrolo[3,4-c]pyridin-1-one], which IC50 (Cbl-b [1]; [6]) is on record?
**A.** 0.301 to 1 µM

**Q.** What about the fold induction at 0.3 µM (T-cell [3]; [11]) of the same compound?
**A.** 1.01 to 1.3

**Q.** And the fold induction at 1 µM (T-cell [3]; [12])?
**A.** 1.01 to 1.3

**Q.** What about the fold induction at 4 µM (T-cell [3]; [13]) of the same compound?
**A.** 1.01 to 1.3

**Q.** `Cc1cc2c(c(C3CC3)n1)CN(c1cccc([C@H](C)Cc3nncn3C)c1)C2=O` [Compound 372, 4-cyclopropyl-6-methyl-2-{3-[(2R)-1-(4-methyl-4H-1,2,4-triazol-3-yl)propan-2-yl]phenyl}-1H,2H,3H-pyrrolo[3,4-c]pyridin-1-one] was tested. Which IC50 (Cbl-b [1]; [6]) did it give?
**A.** 0.301 to 1 µM

**Q.** What about the fold induction at 0.3 µM (T-cell [3]; [11]) of the same compound?
**A.** 1.01 to 1.3

**Q.** What about the fold induction at 1 µM (T-cell [3]; [12]) of the same compound?
**A.** 1.01 to 1.3

**Q.** What about the fold induction at 4 µM (T-cell [3]; [13]) of the same compound?
**A.** 1.01 to 1.3

**Q.** For `CNCc1ccc(C(=O)Nc2cccc([C@H](C)Cc3nncn3C)c2)nc1C1CC1` [Compound 376, (R)-6-cyclopropyl-N-(3-(1-(4-methyl-4H-1,2,4-triazol-3-yl)propan-2-yl)phenyl)-5-((methylamino)methyl)picolinamide], which IC50 (Cbl-b [1]; [6]) is on record?
**A.** 0.1 to 0.3 µM

**Q.** What about the fold induction at 0.3 µM (T-cell [3]; [11]) of the same compound?
**A.** 1.01 to 1.3

**Q.** And the fold induction at 1 µM (T-cell [3]; [12])?
**A.** 1.31 to 1.5

**Q.** What about the fold induction at 4 µM (T-cell [3]; [13]) of the same compound?
**A.** 1.51 to 1.75

**Q.** What about the IC50 (Cbl-b [4]) of the same compound?
**A.** ≤ 300 nM
